These results are taken from ChEMBL document CHEMBL1201862, “PubChem BioAssay data set” (2004).

Each structure is given as a SMILES string.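 How tested: cells in 96-well plates exposed to compound for 48 hours at five concentrations. GI50 is the concentration that inhibits growth by half.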 Active and inactive are the calls of the source. No stated cut-off is given here; in the data, active = GI50 up to about 1.1 µM and inactive = higher.

What all share (assay): growth of human tumour cells (NCI), 48 h
The subject of assay [1] is A498.
Assay [2] relates to OVCAR-5.
In assay [3] the test system is KM12.
For assay [4], the system named is RXF 393.
The test system of assay [5] is 786-0.
For assay [6], the system named is BT-549.
The subject of assay [7] is NCI/ADR-RES.
Assay [8] deals with M14.
Assay [9] deals with OVCAR-3.
Assay [10] deals with SW-620.
Assay [11] relates to UO-31.
Assay [12] deals with SR.
The subject of assay [13] is TK-10.
In assay [14] the test system is HCT-116.
Assay [15] concerns HOP-92.
Assay [16] concerns RPMI-8226.
Assay [17] deals with NCI-H460.

For `c1ccc(-c2nnc(-c3ccccn3)c3c2C[C@@H]2C[C@@H]4Cc5c(-c6ccccn6)nnc(-c6ccccn6)c5[C@@H]4[C@H]32)nc1`, the GI50 in [1] is 2.39 µM (inactive); in [2], 61 µM (inactive); in [3] it was 51.2 µM (inactive); in [4], > 100 µM (inactive); in [5] it was 33.7 µM (inactive); in assay [6] it was 41.2 µM (inactive). Besides, the GI50 is 32.7 µM (inactive) in assay [7]; 20 µM (inactive) in assay [8]; 85.9 µM (inactive) in [9]; 63.1 µM (inactive) in [10]; 21.7 µM (inactive) in [11]; 41.4 µM (inactive) in assay [12]. Also, the GI50 in assay [13] was > 100 µM (inactive); in assay [14], 39.8 µM (inactive); in assay [15] it was 60.4 µM (inactive); in assay [16], 44.7 µM (inactive); in [17], 27.5 µM (inactive).
Consider `CCCCCCCCCCCCCCCCCCNc1ccn(C2OC(COP(=O)(O)OCC3OC(n4cc(C)c(=O)[nH]c4=O)CC3O)C(O)C2O)c(=O)n1` (stereo not given), for which the GI50 in [1] was 24.8 µM (inactive); in assay [2] it was 14.8 µM (inactive); in [3], 18.3 µM (inactive); in [4], 12 µM (inactive); in assay [5], 18 µM (inactive); in [6] it was 14.7 µM (inactive). Besides, the GI50 in assay [7] was 15.8 µM (inactive); in assay [8], 17 µM (inactive); in assay [9], 19 µM (inactive); in assay [10] it was 15.2 µM (inactive); in assay [11], 18.5 µM (inactive); in [12] it was 11.9 µM (inactive). The GI50 is 5.68 µM (inactive) in [13]; 17.1 µM (inactive) in assay [14]; 29.9 µM (inactive) in assay [15]; 16.1 µM (inactive) in assay [16]; 17.9 µM (inactive) in assay [17].
Turning to `C=C1C(O)CC[C@]2(C)C1C1OC(C)(C)O[C@]13CC(=O)C(C)=C([C@H]1OC(C)(C)OC12)C3(C)C` (stereo not given in full), the GI50 was 23.1 µM (inactive) in assay [1]; > 100 µM (inactive) in assay [2]; > 100 µM (inactive) in assay [3]; 27.4 µM (inactive) in [4]; > 100 µM (inactive) in assay [5]; > 100 µM (inactive) in [6]. Besides, the GI50 in assay [7], in assay [9], in [10], in assay [11], in assay [12] and in assay [13] was > 100 µM (inactive) each time. Also, the GI50 in assay [14] was > 100 µM (inactive); in [16], 96.8 µM (inactive); in assay [17], > 100 µM (inactive).
In the case of `Cc1ccc(OCC2OC(C#N)C(Oc3ccc(C)cc3)C2Oc2ccc(C)cc2)cc1` (stereo not given), the GI50 in [1], in [2], in [3], in [4], in assay [5] and in assay [6] was > 100 µM (inactive) each time. The GI50 in [7], in [8], in [9], in assay [10], in assay [11] and in assay [12] was > 100 µM (inactive) throughout. Besides, the GI50 in assay [14], in assay [16] and in assay [17] was > 100 µM (inactive) each time.
Turning to `COc1ccc(/C=N/NC(=O)c2ccc(O)c(CN(C)C)c2)cc1`, the GI50 is 18.2 µM (inactive) in [1]; > 100 µM (inactive) in assay [2]; > 100 µM (inactive) in assay [3]; > 100 µM (inactive) in [4]; > 100 µM (inactive) in assay [5]; > 100 µM (inactive) in assay [6]. In addition, the GI50 in [7], in assay [8], in [9], in assay [10], in assay [11] and in [12] was > 100 µM (inactive) throughout. The GI50 is > 100 µM (inactive) in assay [13], > 100 µM (inactive) in assay [14], 57 µM (inactive) in assay [15] and > 100 µM (inactive) in assay [17].
As to `C=C(NC(=O)C(=C)NC(=O)c1csc(C2=NC3c4csc(n4)C4NC(=O)c5csc(n5)C(C(C)(O)C(C)O)NC(=O)C5CSC(=N5)/C(=C/C)NC(=O)C(C(C)O)NC(=O)c5csc(n5)C3(CC2)NC(=O)C(C)NC(=O)C(=C)NC(=O)C(=C)NC(=O)C(C(C)C)NC2C=Cc3c(C(C)O)cc(nc3C2O)C(=O)OC4C)n1)C(N)=O` (stereo not given), the GI50 is 2.29 µM (inactive) in [1]; 4.09 µM (inactive) in assay [2]; 2.66 µM (inactive) in [3]; 0.708 µM (active) in assay [4]; 1.29 µM (inactive) in assay [5]; 2.37 µM (inactive) in [6]. The GI50 is > 42.2 µM (inactive) in [7]; 2.62 µM (inactive) in [8]; 10.3 µM (inactive) in assay [9]; 0.673 µM (active) in [10]; 60.5 µM (inactive) in assay [11]; 4.18 µM (inactive) in assay [13]. Also, the GI50 in [14] was 0.312 µM (active); in assay [15], 4.67 µM (inactive); in assay [16], 1.29 µM (inactive); in assay [17], 4.7 µM (inactive).
`O=c1[nH]cnc2c1ncn2[C@H]1CO[C@@H](CO)[C@@H]1O`: the GI50 in assay [1], in [2], in [3], in [4], in assay [5] and in assay [6] was > 100 µM (inactive) in each case. For the same compound, the GI50 in [7], in assay [9], in assay [10], in assay [11], in assay [12] and in assay [13] was > 100 µM (inactive) in each case. For the same compound, the GI50 in assay [14], in [15], in [16] and in [17] was > 100 µM (inactive) each time.
Regarding `CC1(C)CC(C2=NCCO2)CC(C)(C)N1`, the GI50 in assay [1], in [2], in assay [4], in [5], in assay [6] and in [7] was > 100 µM (inactive) in each case. The GI50 in assay [8], in [9], in assay [11], in [12], in [13] and in [14] was > 100 µM (inactive) in each case. The GI50 in assay [15] and in assay [16] was > 100 µM (inactive) throughout.
For `c1ccc2c(c1)CCCN1CCc3ccccc3C21` (stereo not given), the GI50 in assay [1] is > 100 µM (inactive); in assay [2], 42.2 µM (inactive); in assay [3], 45.6 µM (inactive); in [5] it was 80.9 µM (inactive); in assay [6], 60.1 µM (inactive); in [7] it was 78.3 µM (inactive). Besides, the GI50 in assay [8] is 26.9 µM (inactive); in [9], > 100 µM (inactive); in assay [10], 35.5 µM (inactive); in [11], 30.3 µM (inactive); in assay [12], 58.7 µM (inactive); in assay [13], 61.4 µM (inactive). In addition, the GI50 in assay [14] was 38.5 µM (inactive); in [15] it was 24.9 µM (inactive); in [16], 36.2 µM (inactive); in assay [17], 33.9 µM (inactive).
As to `NC(=O)N/N=C1\CC2C3CC4C2C4C13` (stereo not given), the GI50 in assay [1], in assay [2], in assay [3], in [5], in assay [6] and in assay [7] was > 100 µM (inactive) in each case. Further, the GI50 in assay [8], in assay [9], in assay [10], in assay [11], in assay [12] and in assay [13] was > 100 µM (inactive) in each case. In addition, the GI50 in assay [14], in [15], in assay [16] and in assay [17] was > 100 µM (inactive) in each case.
Take `Cc1cc(C)c2c(n1)S(=O)(=O)N(CCCN1CCN(c3cccc(C(F)(F)F)c3)CC1)C(C(=O)c1ccc(Cl)cc1)=C2O`: the GI50 in assay [1] was 4.52 µM (inactive); in assay [2] it was 4.71 µM (inactive); in assay [3], 3.58 µM (inactive); in assay [4], 4.34 µM (inactive); in assay [5] it was 2.47 µM (inactive); in assay [6], 6.1 µM (inactive). Besides, the GI50 in assay [7] was 2.12 µM (inactive); in [8], 2.65 µM (inactive); in assay [9] it was 3.57 µM (inactive); in [10] it was 3.69 µM (inactive); in assay [11] it was 1.33 µM (inactive); in [12], 0.507 µM (active). Moreover, the GI50 in assay [13] is 3.01 µM (inactive); in assay [14], 2.81 µM (inactive); in assay [15] it was 2.5 µM (inactive); in assay [17], 1.79 µM (inactive).
Take `CCOC(=O)NNC(=O)NCCCCNC(=O)NNC(=O)OCC`: the GI50 is > 100 µM (inactive) in assay [1]; > 100 µM (inactive) in [2]; 98.2 µM (inactive) in assay [3]; > 100 µM (inactive) in assay [4]; > 100 µM (inactive) in [5]; > 100 µM (inactive) in [6]. Further, the GI50 in assay [7], in assay [8], in assay [9], in [10], in assay [11] and in [13] was > 100 µM (inactive) each time. The GI50 in assay [14], in assay [15], in [16] and in assay [17] was > 100 µM (inactive) each time.
